Results from patent US11892435B2, “NMR methods for measuring pH in oral care, home care and personal care products” (Colgate-Palmolive Company, priority 2018, dated 2024).

Experiment: 13C NMR pH titration of sodium lactate/lactic acid solutions, nonlinear least squares fit of Equation 5
Assay type: physicochemical
Details: carboxyl group of lactic acid, about 1 weight % sodium lactate and lactic acid, pH about 2 to about 5.5, fit of 13C chemical shift vs pH
Method: In at least one implementation, the chemical species or molecular or molecular entity may be or include a carboxyl group, such as the carboxyl group of a lactic acid, where the observed C-13 chemical shift can be expressed according to equation (5): pH=pKa+log [(δC−δCO2H)/(δCO2^−−δC)] (5)
A calibration curve was prepared for measuring lactic acid with an NMR by using standardized buffered solutions of sodium lactate and lactic acid at different mole ratios in water at varying pH. The solutions included a total concentration of sodium lactate and lactic acid at about 1 weight %, and the pH was varied from a pH of about 2 to about 5.5. NMR was performed on the samples to obtain C-13 chemical shift values. A pH electrode was utilized to measure the pH of each of the standardized samples, and the calibration curve was prepared by correlating the measured C-13 chemical shift to the pH values measured by the pH electrode, as illustrated in FIG. 4. As such, the observed ^13C chemical shift of the carbonyl group (δC) was expressed as the weighted average of the ^13C chemical shift between CO2H (δCO2H) and CO2^−(δCO2^−). The pH of the carboxyl group was described in terms of pKa of the carboxyl group, as represented by Equation 5. pH=pKa+log [(δC−δCO2H)/(δCO2^−−δC)] (5)
The nonlinear least squares fit was applied to determine the values of the pKa, the δCO2^−, and the δCO2H.

**Q.** Which pKa does the source give for `CC(O)C(=O)O` (stereo not shown) [lactic acid] here?
**A.** The pKa was 3.73.
